From PubChem BioAssay AID248 (DTP/NCI, 2004)
Toxic doses and inconclusive results are not listed.

System: L1210 leukemia ip in BDF1 mice, survival T/C
Experiment: NCI In Vivo Anticancer Drug Screen. Data for tumor model L1210 Leukemia (intraperitoneal) in B6D2F1 (BDF1) mice
Settings: endpoint: mean survival time, higher = longer survival
How it was run: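 Ratio derived from survival: compound-dosed mice over vehicle-dosed mice, all bearing a transplantable tumor.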

[1] = dose: 100.0 mg/kg/injection, schedule: Q01DX009 (ip), vehicle: saline
[2] = dose: 200.0 mg/kg/injection, schedule: Q01DX009 (ip), vehicle: saline
[3] = dose: 400.0 mg/kg/injection, schedule: Q01DX009 (ip), vehicle: saline
[4] = dose: 100.0 mg/kg/injection, schedule: Q04DX002 (ip), vehicle: Klucel (hydroxypropylcellulose) (HPC)
[5] = dose: 400.0 mg/kg/injection, schedule: Q04DX002 (ip), vehicle: Klucel (hydroxypropylcellulose) (HPC)
[6] = dose: 100.0 mg/kg/injection, schedule: Q04DX003 (ip), vehicle: Klucel (hydroxypropylcellulose) (HPC)
[7] = dose: 200.0 mg/kg/injection, schedule: Q04DX003 (ip), vehicle: Klucel (hydroxypropylcellulose) (HPC)
[8] = dose: 400.0 mg/kg/injection, schedule: Q04DX003 (ip), vehicle: Klucel (hydroxypropylcellulose) (HPC)
[9] = dose: 100.0 mg/kg/injection, schedule: Q04DX003 (ip), vehicle: saline
[10] = dose: 200.0 mg/kg/injection, schedule: Q04DX003 (ip), vehicle: saline
[11] = dose: 400.0 mg/kg/injection, schedule: Q04DX003 (ip), vehicle: saline
[12] = dose: 50.0 mg/kg/injection, schedule: Q04DX002 (ip), vehicle: Klucel (hydroxypropylcellulose) (HPC)
[13] = dose: 100.0 mg/kg/injection, schedule: Q01DX009 (ip), vehicle: saline with Tween-80
[14] = dose: 100.0 mg/kg/injection, schedule: Q04DX003 (ip), vehicle: saline with Tween-80
[15] = dose: 200.0 mg/kg/injection, schedule: Q01DX009 (ip), vehicle: saline with Tween-80
[16] = dose: 200.0 mg/kg/injection, schedule: Q04DX003 (ip), vehicle: saline with Tween-80
[17] = dose: 400.0 mg/kg/injection, schedule: Q04DX003 (ip), vehicle: saline with Tween-80
[18] = dose: 6.25 mg/kg/injection, schedule: Q01DX009 (ip), vehicle: saline with Tween-80

For `N=C(N)c1nn(C2OC(CO)C(O)C2O)c2ncnc(N)c12` (configuration not stated), the T/C (dose: 3.12 mg/kg/injection, schedule: Q01DX009 (ip), vehicle: Klucel (hydroxypropylcellulose) (HPC)) was 102 % of control, the T/C (dose: 6.25 mg/kg/injection, schedule: Q01DX009 (ip), vehicle: Klucel (hydroxypropylcellulose) (HPC)) was 124 % of control and the T/C (dose: 9.0 mg/kg/injection, schedule: Q01DX005 (ip), vehicle: saline) was 159 % of control. The T/C (dose: 12.5 mg/kg/injection, schedule: Q01DX009 (ip), vehicle: Klucel (hydroxypropylcellulose) (HPC)) was 115 % of control, the T/C (dose: 15.0 mg/kg/injection, schedule: Q01DX005 (ip), vehicle: saline) was 185 % of control and the T/C (dose: 25.0 mg/kg/injection, schedule: Q01DX005 (ip), vehicle: saline) was 201 % of control. The T/C (dose: 42.0 mg/kg/injection, schedule: Q01DX005 (ip), vehicle: saline) was 204 % of control.
For `O=C1CC(=O)N2C=CC=CC2=N1`, the T/C [1] was 101 % of control, the T/C [2] was 95 % of control and the T/C [3] was 92 % of control.
For `COC(=O)c1ccccc1NS(=O)(=O)c1ccc(Cl)cc1`, the T/C [4] was 94 % of control and the T/C [5] was 110 % of control.
In the case of `CCOC(=O)C1(C(C)C)OC2(O)CCCCN2C1=O` (configuration not stated), the T/C (dose: 12.5 mg/kg/injection, schedule: Q04DX003 (ip), vehicle: alcohol) is reported as 106 % of control, the T/C (dose: 25.0 mg/kg/injection, schedule: Q04DX003 (ip), vehicle: alcohol) is reported as 104 % of control and the T/C (dose: 50.0 mg/kg/injection, schedule: Q04DX003 (ip), vehicle: alcohol) is reported as 113 % of control. For the same compound, the T/C (dose: 100.0 mg/kg/injection, schedule: Q04DX003 (ip), vehicle: alcohol) was 101 % of control.
`CCCCCCCCCCCCCCCCCCn1cnc2c(=S)nc[nH]c21` was tested, and the T/C (dose: 12.5 mg/kg/injection, schedule: Q01DX005 (ip), vehicle: other) was 106 % of control, the T/C (dose: 25.0 mg/kg/injection, schedule: Q01DX005 (ip), vehicle: other) was 98 % of control and the T/C (dose: 50.0 mg/kg/injection, schedule: Q01DX005 (ip), vehicle: other) was 95 % of control. For the same compound, the T/C (dose: 100.0 mg/kg/injection, schedule: Q01DX005 (ip), vehicle: other) was 104 % of control and the T/C (dose: 200.0 mg/kg/injection, schedule: Q01DX005 (ip), vehicle: other) was 90 % of control.
`Cc1ccc(C(=O)/C(=C/c2ccccc2)c2ccccc2)cc1` was tested, and the T/C (dose: 100.0 mg/kg/injection, schedule: Q01DX009 (ip), vehicle: Klucel (hydroxypropylcellulose) (HPC)) was 101 % of control, the T/C [6] was 96 % of control and the T/C (dose: 200.0 mg/kg/injection, schedule: Q01DX009 (ip), vehicle: Klucel (hydroxypropylcellulose) (HPC)) was 97 % of control. The T/C [7] was 93 % of control, the T/C (dose: 400.0 mg/kg/injection, schedule: Q01DX009 (ip), vehicle: Klucel (hydroxypropylcellulose) (HPC)) was 88 % of control and the T/C [8] was 96 % of control.
With `COc1cc(C(=O)OCCCN2CCOCC2)cc(OC)c1OC` the T/C (dose: 25.0 mg/kg/injection, schedule: Q01DX009 (ip), vehicle: saline) was 107 % of control, the T/C (dose: 25.0 mg/kg/injection, schedule: Q04DX003 (ip), vehicle: saline) was 106 % of control and the T/C (dose: 50.0 mg/kg/injection, schedule: Q01DX009 (ip), vehicle: saline) was 92 % of control. For the same compound, the T/C (dose: 50.0 mg/kg/injection, schedule: Q04DX003 (ip), vehicle: saline) was 101 % of control, the T/C [1] was 92 % of control and the T/C [9] was 98 % of control. The T/C [2] was 105 % of control, the T/C [10] was 98 % of control and the T/C [3] was 100 % of control. The T/C [11] was 95 % of control.
For `O=C(c1ccccc1)c1cccc2ccccc12`, the T/C [12] was 109 % of control, the T/C [4] was 105 % of control and the T/C (dose: 200.0 mg/kg/injection, schedule: Q04DX002 (ip), vehicle: Klucel (hydroxypropylcellulose) (HPC)) was 105 % of control. For the same compound, the T/C [5] was 109 % of control.
For `O=C1/C(=C/c2ccccc2)Cc2ccccc21`, the T/C [13] was 95 % of control, the T/C [14] was 101 % of control and the T/C [15] was 95 % of control. For the same compound, the T/C [16] was 95 % of control, the T/C (dose: 400.0 mg/kg/injection, schedule: Q01DX009 (ip), vehicle: saline with Tween-80) was 95 % of control and the T/C [17] was 109 % of control.
In the case of `CC1(C)CC(=O)C2=C(C1)OC1=C(C(=O)CC(C)(C)C1)C2c1ccccc1[N+](=O)[O-]`, the T/C [14] is reported as 98 % of control, the T/C [16] is reported as 88 % of control and the T/C [17] is reported as 97 % of control.
`CCOC(=O)C(C)(O)C1(Cl)CCC(C(C)(C)C)CC1` (configuration not stated) was tested, and the T/C (dose: 100.0 mg/kg/injection, schedule: Q04DX002 (ip), vehicle: saline) was 103 % of control, the T/C (dose: 200.0 mg/kg/injection, schedule: Q04DX002 (ip), vehicle: saline) was 103 % of control and the T/C (dose: 400.0 mg/kg/injection, schedule: Q04DX002 (ip), vehicle: saline) was 100 % of control.
For `S=c1c2ccccc2sn1-c1ccccc1`, the T/C (dose: 100.0 mg/kg/injection, schedule: Q01DX001 (ip), vehicle: carboxymethylcellulose (CMC)) was 92 % of control, the T/C (dose: 200.0 mg/kg/injection, schedule: Q01DX001 (ip), vehicle: carboxymethylcellulose (CMC)) was 94 % of control and the T/C (dose: 400.0 mg/kg/injection, schedule: Q01DX001 (ip), vehicle: carboxymethylcellulose (CMC)) was 87 % of control.
`Cc1ccc(NC(=O)Nc2c(C)n(C)n(-c3ccccc3)c2=O)c([N+](=O)[O-])c1` was tested, and the T/C [6] was 94 % of control, the T/C [7] was 91 % of control and the T/C [8] was 91 % of control.
For `Clc1nc(Cl)nc(-c2cccn2-c2ccccc2)n1`, the T/C [18] was 92 % of control, the T/C (dose: 100.0 mg/kg/injection, schedule: Q04DX003 (ip), vehicle: acetone) was 101 % of control and the T/C [9] was 101 % of control. The T/C (dose: 200.0 mg/kg/injection, schedule: Q04DX003 (ip), vehicle: acetone) was 86 % of control and the T/C [11] was 93 % of control.
`O=C(NCCc1ccccc1)c1ccccc1` was tested, and the T/C [14] was 112 % of control, the T/C [16] was 102 % of control and the T/C [17] was 100 % of control.
`Cc1nnc(C(N)=O)c(=O)[nH]1` was tested, and the T/C (dose: 100.0 mg/kg/injection, schedule: Q01DX001 (ip), vehicle: Klucel (hydroxypropylcellulose) (HPC)) was 109 % of control, the T/C (dose: 200.0 mg/kg/injection, schedule: Q01DX001 (ip), vehicle: Klucel (hydroxypropylcellulose) (HPC)) was 120 % of control and the T/C (dose: 400.0 mg/kg/injection, schedule: Q01DX001 (ip), vehicle: Klucel (hydroxypropylcellulose) (HPC)) was 97 % of control.
In the case of `O=C(C1C(c2ccccc2)C1c1ccccc1)N(CCO)Cc1ccccc1` (configuration not stated), the T/C (dose: 25.0 mg/kg/injection, schedule: Q04DX002 (ip), vehicle: Klucel (hydroxypropylcellulose) (HPC)) is reported as 94 % of control, the T/C [12] is reported as 103 % of control and the T/C [4] is reported as 94 % of control.
In the case of `Cc1ccc(-n2nnnc2N)c(C)c1`, the T/C [9] is reported as 94 % of control, the T/C [10] is reported as 91 % of control and the T/C [11] is reported as 94 % of control.
With `c1ccc(-c2cc(-c3ccccc3)c(-c3ccccc3)c(-c3ccccc3)c2-c2ccccc2)cc1` the T/C (dose: 50.0 mg/kg/injection, schedule: Q01DX009 (ip), vehicle: saline with Tween-80) was 87 % of control, the T/C [13] was 93 % of control and the T/C [15] was 93 % of control.
For `CCCCCC(=O)Oc1c(C(C)CC)cc([N+](=O)[O-])cc1[N+](=O)[O-]` (configuration not stated), the T/C [18] was 111 % of control, the T/C (dose: 12.5 mg/kg/injection, schedule: Q01DX009 (ip), vehicle: saline with Tween-80) was 88 % of control and the T/C (dose: 25.0 mg/kg/injection, schedule: Q01DX009 (ip), vehicle: saline with Tween-80) was 90 % of control. For the same compound, the T/C (dose: 25.0 mg/kg/injection, schedule: Q04DX002 (ip), vehicle: saline with Tween-80) was 89 % of control.
`Nc1nc(N)c2nnsc2n1` was tested, and the T/C (dose: 100.0 mg/kg/injection, schedule: Q01DX001 (ip), vehicle: saline with Tween-80) was 101 % of control, the T/C (dose: 200.0 mg/kg/injection, schedule: Q01DX001 (ip), vehicle: saline with Tween-80) was 96 % of control and the T/C (dose: 400.0 mg/kg/injection, schedule: Q01DX001 (ip), vehicle: saline with Tween-80) was 90 % of control.
For `CCCCCCOC(=O)Nc1ccc(S(=O)(=O)NC2CCCCC2)cc1`, the T/C (dose: 100.0 mg/kg/injection, schedule: Q01DX001 (ip), vehicle: saline) was 94 % of control, the T/C (dose: 200.0 mg/kg/injection, schedule: Q01DX001 (ip), vehicle: saline) was 90 % of control and the T/C (dose: 400.0 mg/kg/injection, schedule: Q01DX001 (ip), vehicle: saline) was 95 % of control.
In the case of `CCOC(=O)C1(C(=O)OCC)CCC(O)N1C(=O)c1ccccc1[N+](=O)[O-]` (configuration not stated), the T/C (dose: 50.0 mg/kg/injection, schedule: Q04DX003 (ip), vehicle: Klucel (hydroxypropylcellulose) (HPC)) is reported as 97 % of control, the T/C [6] is reported as 91 % of control and the T/C [7] is reported as 91 % of control.
